Data published in patent US9334256B2, “Agents and methods for treating ischemic and other diseases” (NoNO INC., priority 2011, dated 2016).
“Also recorded” adds a separate entry of the source.

Experiments:
[1] = test system: neurons, hepatocytes, cardiomyocytes, retina; experiment: Survival after anoxia in cells and tissues; assay type: cell-based; conditions: summary statement
[2] = test system: rat brains subjected to concussive brain trauma; experiment: Fluid percussion injury (FPI) model, TTC staining of brain sections; assay type: in vivo; conditions: applied prior to the injury or 1 hour after; 2-6 atm injury; FIG. 1
Method: Inhibitors of TRPM7 were tested for their ability to provide neuroprotection to rat brains subjected to concussive brain trauma using a rodent model of fluid percussion injury (FPI). FPI was performed as described in the literature using 350-370 g male Sprague Dawley rats (Charles River, St. Constant, Quebec, Canada). In brief, 24 h before injury, the animal was anesthetized using 2% halothane and 2:1 nitrous oxide:oxygen. A 4.8 mm craniotomy was made with its center between the bregma and lambda and between the sagittal suture and right temporal ridge. A modified Leur-loc fitting was attached over the craniotomy and cemented in place using Acron MC/R dental acrylic (GC America, Alsip, Ill.). The Leur-loc was filled with saline, and a small piece of gelfoam was inserted. The incision was sutured, and the animal was returned to its cage overnight if not used same day. The following day, the incision was reopened, cleaned, and the gelfoam was removed. […] Injury severity was recorded using an oscilloscope attached to a transducer, and by sectioning the brains and staining with 2,3,5-Triphenyltetrazolium chloride staining (TTC). […]
Likewise, TRPM7 inhibitors are also expected to provide neuroprotection to other types of brain injuries. […] TRPM7 inhibitors such as M21 were applied 1 hour after stretch injury and cells were assessed for survival by PI fluorescence 24 hours after the injury. […]

SMILES: Cc1c(Cc2ccc(Cl)c(Cl)c2)c(=O)oc2cc(O)ccc12 [Compound M21]
- survival after anoxia [1]: broadly effective in increasing survival after anoxia in various tissues
- protection of rat brains from fluid percussion-induced neuronal damage [2]: able to protect the brain from injuries sustained from concussive trauma; also recorded: significant protection
